# Test results from ChEMBL document CHEMBL1201862, “PubChem BioAssay data set” (2004).
# Active and inactive are the calls of the source.
# Experiments:
# [1] = biological target: FAD-linked sulfhydryl oxidase ALR (Homo sapiens, UniProt P55789); assay: inhibitors of human ALR sulfhydryl oxidase, dose response, biochemical, H2O2 detection, luminescence, cherry-pick (AID 493248)
# Estrogen receptor beta = Estrogen receptor beta (Homo sapiens, UniProt Q92731);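 further: recombinant ER-beta bound to coactivator SRC1 peptide in presence of estradiol agonist; inhibitors block coactivator peptide binding and lower the FRET signal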
# cells [2] = format: functional, cell-based
# cells [3] = format: functional, cell-based; remark: listed apart in the source
# HeLa = assay: HeLa cell cytotoxicity, dose response, cytotoxicity control for MITF activator project, CellTiter-Glo luminescence, cherry-pick samples (AID 540259); format: functional, cell-based; details: Homo sapiens
# [4] = biological target: Dual specificity tyrosine-phosphorylation-regulated kinase 1A (Rattus norvegicus, UniProt Q63470); format: biochemical, Homo sapiens
# Leucine aminopeptidase = biological target: T1, Leucine aminopeptidase (Plasmodium falciparum 3D7, UniProt Q8IL11); assay: P. falciparum M17LAP inhibitors, primary screen, biochemical, fluorogenic H-Leu-NHMec substrate, 1536-well (AID 1619); format: functional
# T1 sequence (Q8IL11 whole entry): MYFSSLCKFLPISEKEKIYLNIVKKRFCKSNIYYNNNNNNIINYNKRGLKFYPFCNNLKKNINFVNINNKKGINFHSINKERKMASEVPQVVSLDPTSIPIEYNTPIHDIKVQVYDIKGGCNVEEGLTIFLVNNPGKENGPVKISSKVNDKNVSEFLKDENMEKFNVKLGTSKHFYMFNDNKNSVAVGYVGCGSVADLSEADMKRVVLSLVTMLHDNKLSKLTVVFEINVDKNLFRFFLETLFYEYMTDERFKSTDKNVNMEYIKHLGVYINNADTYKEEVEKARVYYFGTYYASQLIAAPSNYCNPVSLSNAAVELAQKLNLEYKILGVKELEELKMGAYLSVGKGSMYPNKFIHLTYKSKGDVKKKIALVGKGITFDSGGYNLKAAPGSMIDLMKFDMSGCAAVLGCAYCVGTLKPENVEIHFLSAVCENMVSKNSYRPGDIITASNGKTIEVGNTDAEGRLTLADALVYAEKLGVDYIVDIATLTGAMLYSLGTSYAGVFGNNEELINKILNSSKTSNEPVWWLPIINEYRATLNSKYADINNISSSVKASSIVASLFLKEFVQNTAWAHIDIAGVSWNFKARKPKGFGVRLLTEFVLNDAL
# H4 = assay: Luminescence Cell-Based Dose Response HTS to Identify Activators of 5'UTR Stem-Loop Driven Prion Protein mRNA Translation in H4 Neuroglioblastoma Cells. [Related pubchem assays: 1829 (Project Summary), 1814 (Primary HTS)]; format: functional; details: Homo sapiens
# [5] = Luminescence Cell-Based Dose Confirmation HTS to Identify Inhibitors of Platelet Dense Granule Release. [Related pubchem assays: 1663 (Primary HTS), 1678 (Summary of Project)]; format: functional
# [6] = biological target: T2, Luciferin 4-monooxygenase (Photinus pyralis, UniProt P08659); assay: Counter Screen for Luciferase-based Assay Positives. [Related pubchem assays: 620, 618, 411 ]
# [7] = MC4R antagonists, dose response, counter-screen for LGR2 antagonist project, cell-based, plate reader, cherry pick (AID 743444); format: functional;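 further: transfected HEK 293 cells stimulated with alpha-MSH peptide; potency of inhibitors of the alpha-MSH evoked signal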
# HT-1080 = assay: cytotoxicity in HT1080 fibrosarcoma cells, cell-based, fluorescence readout (AID 620); format: functional; details: Homo sapiens
# [8] = HepG2 cell cytotoxicity, dose response, cytotoxicity control, plate reader, cherry-pick, antagonist series (AID 743416); format: functional, cell-based
# [9] = biological target: T2, Luciferin 4-monooxygenase; assay: firefly luciferase enzyme inhibitors, dose response, biochemical, luminescence (AID 1891)
# [10] = A549 cell cytotoxicity, dose response, cytotoxicity control, plate reader, cherry-pick, antagonist series (AID 743412); format: functional, cell-based
# [11] = LGR2 antagonists, dose response, cell-based, HEK293, CRE-luciferase reporter, cherry pick, set 2 (AID 743343); format: functional;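 further: transfected cells were stimulated with diluted bursicon conditioned medium after compound addition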
# Prothrombin = Prothrombin (Homo sapiens, UniProt P00734); assay: Thrombin 1536 HTS Dose Response Confirmation. [Related pubchem assays: 1046 (Thrombin 1536 HTS; hits were confirmed in this assay)]; format: functional
# Paired box protein Pax-8 = Paired box protein Pax-8 (Homo sapiens, UniProt Q06710); assay: inhibitors of PAX8-driven TPO luciferase reporter, dose response, RMG-I cells, cherry-pick (AID 687027); format: functional, cell-based;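 further: luciferase reporter driven by Pax8 target thyroperoxidase promoter measured by SteadyGlo luminescence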
# [12] = THP-1 cell cytotoxicity, dose response, cytotoxicity control for non-replicating M. tuberculosis project (AID 489025); format: functional
# [13] = HepG2 cell cytotoxicity, dose response, cytotoxicity control for non-replicating M. tuberculosis project (AID 489018); format: functional; details: Mycobacterium tuberculosis
# Vero = assay: cells; format: functional, cell-based; details: Chlorocebus sabaeus
# cells [14] = assay: cells
# Major prion protein = Major prion protein (Homo sapiens, UniProt P04156); format: functional, cell-based
# [15] = cytotoxicity toward NIH3T3 fibroblasts, dose response, counter-screen, cell-based, ATP luminescence, mouse fibroblasts (AID 2010); format: functional;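 further: cells exposed to compound for about 90 hours before reading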
# [16] = inhibitors of intracellular T. cruzi replication, confirmation, NIH3T3 host cells, beta-gal luminescence (AID 2044); format: functional, cell-based;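 further: intracellular parasites grown in NIH/3T3 mouse fibroblasts as host cells; luminescent beta-galactosidase reporter signal from transgenic T. cruzi replicating inside host cells; inhibitors lower the luminescence signal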
# Protein RecA = biological target: T3, Protein RecA (Mycobacterium tuberculosis, UniProt P9WHJ3); assay: Fluorescence Cell-Free Homogeneous Dose Retest to Identify Inhibitors of RecA-Intein Splicing Activity. [Related pubchem assays (depositor defined):AID2097, AID2223, AID489010, AID492950]; format: functional
# T3 sequence (P9WHJ3 whole entry): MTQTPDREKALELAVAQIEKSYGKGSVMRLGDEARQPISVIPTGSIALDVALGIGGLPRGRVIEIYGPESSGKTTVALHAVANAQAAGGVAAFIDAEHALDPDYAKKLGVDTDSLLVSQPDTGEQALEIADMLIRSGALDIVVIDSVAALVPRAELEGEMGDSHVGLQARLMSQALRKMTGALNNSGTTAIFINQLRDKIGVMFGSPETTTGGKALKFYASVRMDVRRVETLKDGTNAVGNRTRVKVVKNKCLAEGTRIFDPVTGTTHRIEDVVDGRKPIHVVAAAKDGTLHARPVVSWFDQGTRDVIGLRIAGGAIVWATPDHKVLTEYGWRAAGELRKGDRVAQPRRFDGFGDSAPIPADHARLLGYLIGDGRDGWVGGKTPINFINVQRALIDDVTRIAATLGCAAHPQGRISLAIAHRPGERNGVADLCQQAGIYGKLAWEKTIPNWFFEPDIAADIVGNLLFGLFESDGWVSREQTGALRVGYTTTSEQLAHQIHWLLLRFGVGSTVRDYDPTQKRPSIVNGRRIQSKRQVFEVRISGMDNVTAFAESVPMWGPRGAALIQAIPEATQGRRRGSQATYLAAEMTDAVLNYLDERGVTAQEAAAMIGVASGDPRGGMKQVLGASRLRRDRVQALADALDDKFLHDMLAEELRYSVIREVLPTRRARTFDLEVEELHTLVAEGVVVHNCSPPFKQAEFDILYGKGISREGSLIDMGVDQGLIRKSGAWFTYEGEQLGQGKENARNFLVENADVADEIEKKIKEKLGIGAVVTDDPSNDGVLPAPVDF
# [17] = biological target: T4, Replicative DNA helicase DnaB (Mycobacterium tuberculosis, UniProt P9WMR3); assay: DnaB intein splicing inhibitors, dose response, biochemical, cell-free fluorescence (AID 449749); format: functional
# T4 sequence (P9WMR3 whole entry): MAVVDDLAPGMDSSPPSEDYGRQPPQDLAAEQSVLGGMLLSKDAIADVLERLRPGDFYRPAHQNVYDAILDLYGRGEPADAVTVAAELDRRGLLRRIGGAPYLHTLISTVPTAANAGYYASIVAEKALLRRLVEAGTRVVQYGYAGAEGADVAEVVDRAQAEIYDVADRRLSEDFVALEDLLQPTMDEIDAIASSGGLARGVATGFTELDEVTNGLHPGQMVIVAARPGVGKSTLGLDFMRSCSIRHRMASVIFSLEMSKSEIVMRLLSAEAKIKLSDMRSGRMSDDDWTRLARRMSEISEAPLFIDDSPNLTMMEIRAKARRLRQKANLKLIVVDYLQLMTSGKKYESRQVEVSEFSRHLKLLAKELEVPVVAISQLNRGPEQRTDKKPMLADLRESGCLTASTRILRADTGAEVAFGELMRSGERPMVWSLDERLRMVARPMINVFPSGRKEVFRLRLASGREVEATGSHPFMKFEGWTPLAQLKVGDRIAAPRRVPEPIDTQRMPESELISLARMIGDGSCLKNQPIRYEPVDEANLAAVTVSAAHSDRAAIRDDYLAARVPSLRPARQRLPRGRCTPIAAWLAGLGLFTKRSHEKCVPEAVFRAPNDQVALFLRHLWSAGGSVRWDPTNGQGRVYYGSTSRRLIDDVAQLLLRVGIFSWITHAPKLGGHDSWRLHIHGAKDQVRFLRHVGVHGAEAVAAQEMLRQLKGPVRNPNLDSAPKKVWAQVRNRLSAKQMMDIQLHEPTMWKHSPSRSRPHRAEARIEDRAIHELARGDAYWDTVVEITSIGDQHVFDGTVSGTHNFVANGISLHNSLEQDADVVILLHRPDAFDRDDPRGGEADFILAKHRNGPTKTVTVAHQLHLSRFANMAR
# T2 sequence (P08659 whole entry): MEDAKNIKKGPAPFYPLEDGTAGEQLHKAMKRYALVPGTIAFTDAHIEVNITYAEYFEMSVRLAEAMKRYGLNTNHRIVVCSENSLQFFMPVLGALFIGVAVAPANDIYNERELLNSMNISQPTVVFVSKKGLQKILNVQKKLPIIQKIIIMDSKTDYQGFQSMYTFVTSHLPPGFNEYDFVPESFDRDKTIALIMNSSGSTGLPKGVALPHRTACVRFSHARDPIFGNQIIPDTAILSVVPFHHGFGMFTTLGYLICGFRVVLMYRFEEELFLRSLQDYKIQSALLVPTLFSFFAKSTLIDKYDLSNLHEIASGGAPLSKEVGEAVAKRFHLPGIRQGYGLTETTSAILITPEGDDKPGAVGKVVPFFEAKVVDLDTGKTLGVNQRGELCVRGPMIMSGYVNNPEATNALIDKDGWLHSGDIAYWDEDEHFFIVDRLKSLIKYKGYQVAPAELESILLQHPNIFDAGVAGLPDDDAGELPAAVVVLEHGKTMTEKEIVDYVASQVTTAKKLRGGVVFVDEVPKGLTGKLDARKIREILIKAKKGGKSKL
# FAD-linked sulfhydryl oxidase ALR, sequence (P55789 whole entry): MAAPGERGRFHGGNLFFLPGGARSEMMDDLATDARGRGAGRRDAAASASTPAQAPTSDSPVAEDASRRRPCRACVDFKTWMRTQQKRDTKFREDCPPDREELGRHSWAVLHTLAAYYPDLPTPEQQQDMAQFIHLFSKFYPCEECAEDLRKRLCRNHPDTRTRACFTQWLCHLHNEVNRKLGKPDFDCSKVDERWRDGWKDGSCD
# Estrogen receptor beta, sequence (Q92731 whole entry): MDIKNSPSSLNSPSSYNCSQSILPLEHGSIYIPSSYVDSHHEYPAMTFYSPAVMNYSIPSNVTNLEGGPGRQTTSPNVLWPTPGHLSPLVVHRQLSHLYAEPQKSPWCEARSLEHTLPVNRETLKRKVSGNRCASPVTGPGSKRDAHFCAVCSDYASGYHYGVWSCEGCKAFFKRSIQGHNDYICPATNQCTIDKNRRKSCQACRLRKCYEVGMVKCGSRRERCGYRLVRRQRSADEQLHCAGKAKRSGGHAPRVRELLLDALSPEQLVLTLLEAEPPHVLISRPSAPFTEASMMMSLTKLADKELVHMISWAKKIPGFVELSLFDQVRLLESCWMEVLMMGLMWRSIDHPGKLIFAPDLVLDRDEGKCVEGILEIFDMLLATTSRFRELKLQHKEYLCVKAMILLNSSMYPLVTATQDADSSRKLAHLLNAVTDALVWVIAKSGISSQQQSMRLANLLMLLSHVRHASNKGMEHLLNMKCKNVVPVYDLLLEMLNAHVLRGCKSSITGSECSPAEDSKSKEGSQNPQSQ
# Paired box protein Pax-8, sequence (Q06710 whole entry): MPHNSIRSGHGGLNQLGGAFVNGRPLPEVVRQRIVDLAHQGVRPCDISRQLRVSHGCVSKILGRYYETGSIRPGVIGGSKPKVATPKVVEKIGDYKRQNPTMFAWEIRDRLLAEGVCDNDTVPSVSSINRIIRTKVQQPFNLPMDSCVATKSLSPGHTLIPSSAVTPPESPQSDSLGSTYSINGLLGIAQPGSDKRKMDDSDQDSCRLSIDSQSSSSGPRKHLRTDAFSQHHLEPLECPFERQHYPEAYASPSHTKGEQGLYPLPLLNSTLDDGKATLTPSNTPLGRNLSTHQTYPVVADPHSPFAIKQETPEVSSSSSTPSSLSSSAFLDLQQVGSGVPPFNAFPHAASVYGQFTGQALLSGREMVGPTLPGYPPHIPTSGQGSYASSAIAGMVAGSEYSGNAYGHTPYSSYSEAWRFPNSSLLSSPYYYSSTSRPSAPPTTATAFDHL
compound,measurement,setting,value
O=C1OC(Nc2ccc3c(c2)OCO3)c2ccccc21 (configuration not stated),AC50,[1],0.577 µM (active)
same,IC50,Estrogen receptor beta,> 50 µM (not active)
CC[n+]1c(S(=O)(=O)[O-])ccc2ccc(C)cc21,EC50,cells [2],> 350 µM (not active)
same,EC50,cells [3],> 350 µM (not active)
C/C(=N\OCc1ccc(C#N)cc1)c1ccc(S(=O)(=O)N(C)C)cc1,AC50,HeLa,147 µM (active)
O=C(O)COc1ccc(/C=C/c2ccc3cccc([N+](=O)[O-])c3n2)cc1,AC50,[4],6.6 µM (active)
same,IC50,Leucine aminopeptidase,23.2 µM (active)
O=C1C2C3C=CC(C3)C2C(=O)N1c1cccc2cccnc12 (configuration not stated),IC50,Estrogen receptor beta,21.4 µM (active)
CC(C)(C)c1cc(NC(=O)Nc2ccccc2)no1,EC50,H4,> 120 µM (not active)
same,AC50,HeLa,> 350 µM (inactive)
O=c1c2c(O)cc(O)cc2oc2ccc(O)c(O[C@@H]3O[C@H](CO)[C@@H](O)[C@H](O)[C@H]3O[C@H]3O[C@H](CO)[C@@H](O)[C@H](O)[C@H]3O)c12,AC50,[4],3.69 µM (active)
CCCc1ccc(-c2ccc(F)c(N)c2)nc1,EC50,[5],6.17 µM (active)
same,EC50,[6],1.58 µM (active)
same,AC50,[7],4.06 µM (active)
same,EC50,HT-1080,> 50 µM (not active)
same,AC50,[8],> 52 µM (inactive)
same,EC50,[9],6.33 µM (active)
same,AC50,[10],> 52 µM (inactive)
same,AC50,[11],4.32 µM (active)
Cc1cccc(NC(=S)NC(=O)/C=C/c2ccccc2)n1,IC50,Prothrombin,> 50 µM (not active)
CCOC(=O)Nc1ccc2c(c1)N(C(=O)CCCl)c1ccccc1[S@]2=O,AC50,Paired box protein Pax-8,4.57 µM (active)
same,CC50,[12],24.7 µM (active)
same,CC50,[13],18.9 µM (active)
Cc1ccc2[nH]c(-c3cccc(N)c3)nc2c1,AC50,[1],0.838 µM (active)
same,EC50,[6],0.49 µM (active)
same,EC50,HT-1080,20.6 µM (active)
COc1ccc(C(=O)NNC2=C(C(=O)C(F)(F)F)CCC2)cc1,CC50,[12],18.1 µM (active)
same,CC50,[13],> 20 µM (active)
N#C/C(=C/c1ccc(O)c([N+](=O)[O-])c1)C(=O)Nc1ccccc1,AC50,[4],1.11 µM (active)
CCN(CC)CCCNC(=O)c1ccc2c(Cl)c3c(nc2c1)CCCC3,IC50,Vero,22.6 µM (active)
O=C(Nc1nc2ccccc2[nH]1)c1ccccc1,EC50,[6],< 0.2 µM (active)
same,EC50,HT-1080,> 50 µM (not active)
CC(C)CC(NC(=O)c1ccccc1NC(=O)c1ccccc1)C(=O)O (configuration not stated),EC50,cells [2],> 350 µM (not active)
same,EC50,cells [3],> 350 µM (not active)
CC(=O)Nc1cccc(-c2nc3ccc(NC(C)=O)cc3s2)c1,AC50,HeLa,59.3 µM (active)
Cc1ccc(C(=O)Nc2nc3c(s2)CCCC3)o1,EC50,[6],> 100 µM (not active)
same,EC50,HT-1080,> 50 µM (not active)
Cc1c(-c2cccs2)[n+]([O-])c2c([n+]1[O-])CCC2,IC50,Prothrombin,> 50 µM (not active)
CCOC(=O)COc1cc(Br)c(/C=N/Nc2ccccc2)cc1OC,IC50,cells [14],> 138 µM (inactive)
same,IC50,Major prion protein,16.4 µM (inactive)
CCn1cc(C(=O)NCc2ccc(Cl)cc2)c(=O)c2cc(S(=O)(=O)N3CCOCC3)ccc21,IC50,Prothrombin,8.07 µM (active)
CC(Oc1ccc2ccc(=O)oc2c1)C(=O)NCCN1CCOCC1 (configuration not stated),EC50,cells [2],> 350 µM (not active)
same,EC50,cells [3],> 350 µM (not active)
Cc1ccc(NCC(=O)c2ccc(C)cc2)cc1,EC50,[15],> 60 µM (not active)
same,AC50,HeLa,103 µM (active)
same,EC50,[16],4.53 µM (active)
CC(C)c1nc(SCC(=O)Nc2nc3c(s2)CCCC3)c2ccccc2n1,IC50,cells [14],> 138 µM (inactive)
same,IC50,Major prion protein,5.97 µM (active)
Nc1nc(C(=O)N2CCOCC2)nn1C(=O)c1ccc(Cl)cc1,IC50,Prothrombin,0.00512 µM (active)
same,EC50,Protein RecA,23.4 µM (active)
same,AC50,[17],12.5 µM (active)
COc1ccc(C2=NN(c3ccccc3)C(c3ccc(OC)c(OC)c3)C2)cc1 (configuration not stated),AC50,HeLa,52 µM (active)
